Data on five molecules can be found in article PMC10859961, “Ir(III) Half-Sandwich Photosensitizers with a π-Expansive Ligand for Efficient Anticancer Photodynamic Therapy” (Journal of Medicinal Chemistry, 2024).

Data set [1] deals with A549 cells. Put plainly: Mitochondrial membrane potential (JC-1, flow cytometry). The following applies: positive control, 5 μM, 30 min. The data set is classed as cell-based, human. The protocol:
A549 cells were seeded onto 24-well plates. 24 h later, cells were incubated for 4 h with complexes 2, 4, 6, and 8 at 10 nM and then photoactivated or kept in the dark for an additional hour. Next, the cells were washed with PBS and harvested by trypsinization. Mitochondrial membrane potential changes were immediately measured by the JC-1 (5,5′,6,6′-tetrachloro-1,1′,3,3′-tetraethylbenzimidazolocarbo-cyanine iodide) Mitochondrial Membrane Potential Detection Kit (Biotium), according to the manufacturer’s instructions. As positive control, the cells were coincubated with CCCP (Sigma) at 5 μM for 30 min to disrupt the mitochondrial membrane potential. For each treatment, the fluorescence of 1 × 10^4 cells was analyzed by a Novocyte flow cytometer. JC-1 red aggregates were detected at a wavelength of 590 nm (FL2) and JC-1 green monomers at 529 nm (FL1).
A general note: In flow cytometry, cells or beads pass a laser one at a time.

Data set [2] relates to A549 cancer cells. Description: MTT cell viability assay, dark or photoactivated. The data set is classed as cell-based, human. Particulars: A549, MTT; for IC50: 4 h incubation. The protocol: Cells were cultured in 96-well plates at a density of 3000 (A549), 2500 (HeLa), or 5000 (PC-3, 1BR.3.G, and MRC-5) cells per well in cell culture medium and allowed to attach for 24 h. Solutions of the complexes at different concentrations were prepared for cell treatments. In all cases, the solid compounds were weighed using an analytical balance (Mettler Toledo AX205DR) to ensure precise measurements. Subsequently, 5 mM solutions were prepared using DMSO. Solutions were then diluted in water to reach a concentration of 1 mM and then, aliquots were taken and diluted in culture medium to obtain solutions ranging from 0 to 50 μM. […] The cells were treated with these solutions in dark conditions or following the photoactivation protocol (see below). 48 h later the treatments were removed, and cells were washed with phosphate-buffered saline (PBS).
Initially, the effect of the complexes on the cell viability was determined by the 3-(4,5-dimethylthiazol-2-yl)-2,5-diphenyltetrazolium bromide (MTT) assay.[147] The cells were incubated for 2 h with 100 μL of culture medium together with 10 μL of MTT (Sigma-Aldrich) at 0.5 mg/mL. After discarding the medium, DMSO was added to each well to dissolve the purple formazan crystals. The absorbance of each well was determined on a Multiscan Plate Reader (Synergy 4, Biotek, Winooski) at a wavelength of 570 nm. Cell viability was also assessed using the CyQUANT Direct Cell Proliferation Assay (Thermo Fisher Scientific), following the manufacturer’s instructions. Briefly, after the treatments, the cells were washed with PBS, and an equal volume of culture medium and CyQUANT mix was added to each well. The plates were then incubated for 1 h at 37 °C. Subsequently, the fluorescence intensity was bottom read using a Multiscan Plate Reader (Synergy 4, Biotek, Winooski) with excitation and emission filters of 485 and 528 nm, respectively. In both assays, at least three replicates were measured for each treatment. The concentration that reduces the cell viability by 50% (IC50) was established using the Gen5 software (BioTek). Three independent experiments were carried out for each compound. […] The phototoxicity index (PI = IC50,dark/IC50,light) was determined.
To assess the photodynamic activity of the complexes, cells were incubated with the complexes for 4 h to enable their intracellular accumulation. The cells were then irradiated with light with a wavelength of 460 nm (blue), 530 nm (green), or 655 nm (red) for 1 h using a LED system (LuxLight) with an effective power of 6.7 mW cm^–2, which provides a total light dose of 24.1 J cm^–2. The LED system was positioned at 25 mm from the cell culture plates.

Data set [3] relates to porcine red blood cells (RBC). Description: Hemolytic activity (hemoglobin release). It is filed as cell-based. Particulars: dark, 1 hour. The procedure:
The hemolytic activities of the complexes were determined by measuring hemoglobin release from porcine red blood cells (RBC). First, fresh porcine blood commercially obtained was diluted to 5% v/v in PBS solution and washed three times with PBS by centrifugation at 1000 rcf for 10 min. Then, RBC suspension (150 μL) was mixed with 150 μL of each complex at concentrations ranging from 1 to 50 μM. A solution of 0.2% Triton X-100 in PBS was used as positive control to induce complete hemolysis. PBS alone was used as negative control. Samples were incubated at 37 °C for 1 h in an orbital shaker (50 rpm) and then centrifuged at 3500 rcf for 10 min. 80 μL aliquots of the supernatant were transferred to a 96-well plate and diluted with 80 μL of Milli-Q water. Hemolysis was evaluated by measuring the absorbance of the samples at 540 nm with a Synergy 4 plate reader (BioTek, Winooski). The percentage of hemolysis (H) was calculated using eq 4: [drawing 25] 4 where As is the absorbance for a given sample, An is the absorbance for the negative control, and Ap is the absorbance for the positive control. Each sample was tested in triplicate.

Data set [4] relates to A549 cells. Put plainly: Cell death mechanism (Annexin V-FITC / propidium iodide). The data set is classed as cell-based, human. The following applies: positive control 50 μM for 24 h. The protocol:
The cell death mechanism was analyzed with the Vybrant Apoptosis Assay Kit (Molecular Probes). A549 cells seeded in 12-well plates at a density of 1 × 10^5 cells per well were treated with complex 6 at the corresponding IC50,light × 5 under photoactivation conditions. Cisplatin at 50 μM was used as positive control. 4 and 20 h after the irradiation, cells were collected by trypsinization and immediately stained with Annexin V-FITC and propidium iodide according to the manufacturer’s instructions. The median fluorescence of 10,000 cells of each sample was analyzed by flow cytometry. Annexin-FITC staining was detected at a wavelength of 520 nm (FL1) and propidium iodide was detected at 617 nm (FL2).

Data set [5] can be described thus: Photocatalytic NADH oxidation (UV-vis). The following applies: first hour, complex 2.5 μM, NADH 100 μM. Also noted: key: TON = ΔNADH concentration after 1 h / photocatalyst concentration. It is filed as biochemical. The protocol:
Fresh stock solutions of the complexes at 7.50 μM in H2O/MeOH mixture (97.5/2.5, v/v) and NADH at 300 μM in H2O/MeOH mixture (97.5/2.5, v/v) were prepared. In a quartz cell, 1 mL of complex solution, 1 mL of NADH solution, and 1 mL of solvent mixture were mixed to prepare a final solution with 2.50 μM complex and 100 μM NADH (complex/NADH rate = 1/40). The solutions were studied by recording UV–vis absorption spectra in dark conditions and under blue light irradiation (λexc = 470 nm, “Medusa” photoreactor) at ambient temperature and various time intervals for 8 h. In addition, a solution of NADH at 100 μM was studied under blue light irradiation to confirm its photostability. The photocatalytic rate of the photosensitizers was evaluated by monitoring its absorbance decrease at 340 nm, which correspond to NADH oxidation.
The turnover numbers (TONs) of complexes were calculated by measuring the absorption difference at 340 nm after 1 h of reaction. TON was calculated from the difference in NADH concentration after 1 h divided by the concentration of photocatalyst (eq 5), where b is the optical path length (1 cm). The concentration of NADH was obtained using the extinction coefficient ε340 = 5751 M^–1 cm^–1.[40],[148] [drawing 26] 5

In data set [6] the test system is calf thymus DNA (CT-DNA). Description: Competitive EtBr displacement assay. The data set is classed as binding. Particulars: CT-DNA saturated with EtBr; 1 h, room temperature; read-out: C50 (50% reduction of EtBr fluorescence). The protocol: To investigate the capacity of the complexes to intercalate into DNA, the competitive ethidium displacement assay was carried out as previously described[149] with minor modifications. Stock solutions of 20 μM calf thymus DNA (CT-DNA) and 25 μM Ethidium bromide (EtBr) were prepared in saline TE (50 mM NaCl, 10 mM tris(hydroxymethyl) aminomethane–HCl, 0.1 mM ethylenediaminetetracetic acid (EDTA), pH 7.4). Serial dilutions of metal complexes were prepared at concentrations ranging from 20 to 400 μM from a 1 mM stock solution containing 20% DMSO. The assay was carried out by mixing 25 μL of CT-DNA and 25 μL of EtBr with 50 μL of each compound dilution, on a black 96-well plate. The plate was incubated at room temperature for 1 h and the fluorescence was measured on a Synergy 4 microplate reader (Biotek, Winooski), with excitation wavelength set to 500 nm, and emission wavelength set to 530–800 nm. The fluorescence emission at 590 nm was used to measure the C50, corresponding to the concentration of compound required to induce a 50% decrease in the fluorescence of the EtBr. Experiments were performed in triplicate.

A short description of data set [7]: 1O2 quantum yield determination with DPBF. The following applies: acetonitrile; 470 nm blue light. The procedure: It was performed for complexes 1–8 in acetonitrile according to a relative procedure adapted from the literature[132]−[134] based on monitoring the oxidation of 1,3-diphenylisobenzofuran (DPBF, yellow) to 1,2-dibenzoylbenzene (colorless) photosensitized by the Ir(III) complexes. DPBF was used as an ^1O2 scavenger due to its fast reaction with this molecule. Fresh stock air-equilibrated solutions of photosensitizers (6.00 × 10^–6 M) and DPBF (1.50 × 10^–4 M) in acetonitrile were prepared. In a quartz cell, 1 mL of DPBF solution, 0.5 mL of complex solution, and 1.5 mL of acetonitrile were mixed to prepare a final solution with 5.00 × 10^–5 M DPBF and 1.00 × 10^–6 M complex. The final solutions were studied by recording UV–vis absorption spectra at room temperature in dark conditions (over a period of 6 min with time intervals of 2 min), under blue light irradiation (λexc = 470 nm, “Medusa” photoreactor) and under green light irradiation (λexc = 530 nm, “Medusa” photoreactor) for 5 s irradiation intervals during a total exposure period of 20 s. Absorption UV–vis spectra were recorded after every irradiation interval.
The consumption of DPBF probe was measured by monitoring its absorbance intensity decrease at 410 nm with irradiation time. ^1O2 generation quantum yield (ϕΔ) was calculated from eq 1 using Rose Bengal or [Ru(bpy)3]^2+ as reference for complexes with pbpz and pbpn ligands, respectively: [drawing 22] 1 where s and ref subscripts correspond to the complex and the reference, ϕΔ is the ^1O2 generation quantum yield (0.53 for Rose Bengal[135] and 0.56 for [Ru(bpy)3]Cl2[132] in degassed acetonitrile), S is the slope of the plots of the −ln(normalized absorbance) of DPBF at 410 nm vs the irradiation time, and F is the correction factor of absorption, which is given by F = 1–10^–O.D. (where O.D. is the optical density at 470 nm of solutions of complexes and references). The reproducibility of the results was confirmed by performing each experiment three times.
The stability of DPBF probe was studied in dark conditions and under light irradiation. In dark conditions and under green light irradiation the probe remains unaltered. However, under blue light irradiation, a photobleaching of DPBF was observed. Probe consumption was approximately 6.5% every 5 s. Therefore, a working interval of 20 s was chosen, where 75% of the probe remains stable. To calculate the ϕΔ, a correction factor was applied to the absorbance at 410 nm: a 6.5% of the previous value was added to each absorbance to counteract self-consumption of the probe (i.e., to the absorbance at 10 s, a 6.5% of the absorbance at 5 s was added).

In data set [8] the test system is CT26. Also noted: method as in p (Pozza et al., Inorg. Chem. 2023). The following applies: 540 nm, dose 9 J cm‐2, ref p (Pozza et al., Inorg. Chem. 2023); cited from earlier work.
Where [9] appears, read: kept in the dark, viability after 48 h, read-out: IC50 dark.
[10] abbreviates: blue light 460 nm 1 h (24.1 J cm^–2), 48 h, read-out: IC50 blue light.

Where two headings read alike, the source gives them in different places.

For the molecule `N#CC(C#N)=NNc1cccc(Cl)c1` [CCCP, carbonyl cyanide m-chlorophenyl hydrazone, reference compound], the “cells with red fluorescence (JC-1 aggregates), upper right quadrant” value in data set [1] worked out at 21.9%.

As to `N.N.[Cl][Pt][Cl]` [Cisplatin, reference compound], the IC50 in data set [2] (setting [9]) turned out to be 8.9 ± 2 µM. In addition, the Hemolytic activity amounted to 0% in data set [3] (1 μM), 0% in data set [3] (5 μM), 0% in data set [3] (10 μM) and 0.2% in data set [3] (25 μM). The “cells in early apoptosis (AN+; IP−), lower right quadrant” value in data set [4] is reported as 5.3%. In addition, the “cells in late apoptosis (AN+; IP+), upper right quadrant” value in data set [4] is recorded as 26.1%. Besides, the “cells in necrosis (AN–; IP+), upper left quadrant” value in data set [4] was 6.6%.

As to [(η^5-C5Me5)Ir(bhq)Cl] [complex 10], the IC50 in data set [2] (setting [10]) turned out to be 5.6 ± 0.4 µM; in data set [2] (setting [9]), 10 ± 0.3 µM. The “PI blue light (IC50,dark/IC50,light)” value in data set [2] (blue light 460 nm, 24.1 J cm^–2) was 1.8.

For the molecule `Cc1c(C)c(C)[c-](C)c1C.F[B-](F)(F)F.c1ccc2nc3c4ccc[n+]5c4c4[c](cccc4c3nc2c1)[Ir]5[n+]1cc[nH]c1` [complex 3, [(η^5-C5Me5)Ir(Im)(pbpz)]BF4], the IC50 in data set [2] (setting [10]) was 1.2 ± 0.1 µM; in data set [2] (green light 530 nm 1 h (24.1 J cm^–2), 48 h, read-out: IC50 green light), 2.5 ± 0.3 µM; in data set [2] (setting [9]) it was 4.9 ± 0.7 µM; in data set [6], 16.1 µM. For the same molecule, the “PI green light (IC50,dark/IC50,light)” value in data set [2] (green light 530 nm, 24.1 J cm^–2) worked out at 2.0. The “TON1h (NADH oxidation)” value in data set [5] (470 nm blue light) was 2.28; in data set [5] (dark) it was 0.47. In addition, the “1O2 generation quantum yield (ϕΔ), DPBF” value in data set [7] was 0.0399.

For the molecule `[Ru+2].c1ccc(-c2ccnc3c2ccc2c(-c4ccccc4)ccnc23)cc1.c1ccc(-c2ccnc3c2ccc2c(-c4ccccc4)ccnc23)cc1.c1cnc2c(c1)ccc1cccnc12` [[Ru(DIP)2(phen)]2+], in data set [8], the PI is 1111 and the PI/Dose is 123.4.
